Patent US5086072A, “Treatment of mood disorders with functional antagonists of the glycine/NMDA receptor complex” (The United States of America as represented by the …, priority 1990, dated 1992)
Where two headings read alike, the source gives them in different places.

Tests used:
[1] = forced swim test, duration of immobility during last 4 minutes of 6 minute swim; format: in vivo, mice (male NIH/HSD); conditions: for IMMOBILITY %: change versus control; for minimal effective dose: Mus musculus, read-out: minimum effective dose, swim-induced immobility
Experimental: (§1) Certain exemplary compounds encompassed hereby were evaluated pharmacologically in mice using the forced swim (8) and/or tail suspension (9) tests. These tests were initially designed to detect potential antidepressant agents (13, 14) based on the abilities of clinically effective antidepressants to reduce the immobility that animals typically display after active and unsuccessful escape attempts when subjected to these inescapable stressors. Moreover, the predictive validity (15) and pharmacological specificity (13, 14) of these tests has led to the proposal that they represent animal models of depression. (16)
The duration of immobility was measured during the […]
Values represent means ± standard error of the mean. The number of animals examined in the forced swim test was: VEH, 40; ACPC 25 mg/kg, 11 and 50-600 mg/kg, 10. In the open field, the number of animals tested was: VEH 23; 50 and 600 mg/kg, 5; and 100-400 mg/kg, 10. Male NIH/HSD mice (25-30 g) were injected i.p. with ACPC dissolved in saline. Controls received an equivalent volume of saline. […] (8) The ambulatory time in an open field was measured for five minutes, fifteen minutes after injection of ACPC as described in Table 1.
(§2) Glycine (800 mg/kg) or an equivalent volume of saline was administered intraperitoneally to NIH/HSD mice 45 minutes prior to ACPC (400 mg/kg). Fifteen minutes after ACPC administration, animals were evaluated in the forced swim test or in an open field as described in Table 1. This dose of glycine was selected based on a previous report (40), showing that parenteral administration of large doses is required to elevate cerebral levels of glycine. […] Amino acid levels were determined using HPLC/EC with an isocratic separation method and pre-column amino acid derivatization with o-pthalaldehyde and β-mercaptoethano (41).

[2] = tested on: NMDA receptor complex; conditions: cited from earlier work
[3] = format: in vivo, mice (male NIH/HSD); conditions: for ACTIVITY (time spent ambulating in an open field): mean ± SEM
Experimental: Values represent means ± standard error of the mean. The number of animals examined in the forced swim test was: VEH, 40; ACPC 25 mg/kg, 11 and 50-600 mg/kg, 10. In the open field, the number of animals tested was: VEH 23; 50 and 600 mg/kg, 5; and 100-400 mg/kg, 10. Male NIH/HSD mice (25-30 g) were injected i.p. with ACPC dissolved in saline. Controls received an equivalent volume of saline. Fifteen minutes later, mice were placed in a cylinder (diameter: 10 cm; height: 25 cm) filled with 6 cm of water (22°-25° C.) and the duration of immobility during the last four minutes of forced swim was measured as described. (8) The ambulatory time in an open field was measured for five minutes, fifteen minutes after injection of ACPC as described in Table 1.
as §2

[4] = forced swim and/or tail suspension tests (overall conclusion); format: in vivo, mice
Experimental: as §1

[5] = behavioral effects and lethality observed in connection with forced swim; conditions: for behavioral effects prior to forced swim: I2CA 25-200, HA-966 2.5-10, ACBC 50-100 mg/kg; for lethality combined with forced swim: I2CA 25-200, HA-966 2.5-10 mg/kg
Experimental: (§3) Inset: Effects of ACPC on tail suspension-induced immobility. Values are mean standard error of immobility (sec.) during a 6 minute test. The number of animals used in this test was: VEH, 16; ACPC, 200 mg/kg, 6; 300 mg/kg, 9 and 400 mg/kg, 7. Male C57Bl/6J mice [20-25 g](Jackson Laboratories, Bar Harbor, ME) were injected with ACPC. Fifteen minutes later, mice were suspended by the tail and the duration of immobility measured as described. […] 7-chlorokynurenic acid (25-150 mg/kg), indole2-carboxylic acid (I2CA) (25-200 mg/kg), 3-amino-1-hydroxypyrrolidone (HA-966) (2.5-10 mg/kg), cycloleucine (100-400 mg/kg) and 1-aminocyclobutanecarboxylic acid (ACBC) (50-100 mg/kg) were tested under identical conditions to those employed for the other agents (Table 1 and FIG. 1).

[6] = ambulatory time in the open field (tail suspension study); format: in vivo, C57Bl/6J mice; conditions: 400 mg/kg
[7] = cited from earlier work
[8] = tail suspension test, duration of immobility; format: in vivo, mice (male C57Bl/6J); conditions: 200-400 mg/kg, 15 min before test; F(2,31)=29, p<0.0001
Experimental: as §3

[9] = target: strychnine-insensitive glycine receptors; conditions: cited from earlier work
[10] = tested on: NMDA-gated cation channel; conditions: compared with glycine; cited from earlier work
[11] = target: strychnine sensitive glycine receptors; conditions: cited from earlier work
[12] = cited from earlier work; remark: listed apart in the source
[13] = format: in vivo, mice (male NIH/HSD); conditions: for ACTIVITY (time spent ambulating in an open field): 30 min before test, mean ± SEM
[14] = 60 min after 800 mg/kg i.p.; data not shown
Experimental: as §2

[15] = 0.1 mg/kg i.p., 15 min before test
[16] = 0.5 mg/kg i.p., 15 min before test
[17] = 1 mg/kg i.p., 15 min before test
[18] = 7-chlorokynurenic acid 25-150, I2CA 25-200, HA-966 2.5-10, cycloleucine 100-400, ACBC 50-100 mg/kg

C[C@]12N[C@H](Cc3ccccc31)c1ccccc12 (racemic) [MK-801, (+)-5-methyl-10,11-dihydro-5H-dibenzo[a,d]cycloheptene-5, 10-imine]
IMMOBILITY % [1, 15]: -43% | IMMOBILITY ([1]; 0.1 mg/kg i.p., 15 min before test, mean ± SEM): 80 ± 10 s | maximum reduction of duration of immobility ([1]; 0.5 mg/kg): 92% | IMMOBILITY % [1, 16]: -92% | IMMOBILITY ([1]; 0.5 mg/kg i.p., 15 min before test, mean ± SEM): 11 ± 4 s | IMMOBILITY % [1, 17]: -54% | IMMOBILITY ([1]; 1 mg/kg i.p., 15 min before test, mean ± SEM): 64 ± 23 s | reduction of duration of immobility ([1]; 0.1 and 1 mg/kg): 43-54% | effect on duration of immobility in the forced swim test ([1]; biphasic, doses of Table 1): reduced significantly the duration of immobility | activity at the NMDA receptor complex [2]: non-competitive NMDA antagonist | ACTIVITY (time spent ambulating in an open field) [3, 15]: 144 ± 4 s | increase in ambulatory time in an open field ([3]; 0.5 mg/kg): 34% | ACTIVITY % ([3]; 0.5 mg/kg i.p., 15 min before test, change versus control): +34% | ACTIVITY (time spent ambulating in an open field) [3, 16]: 201 ± 3 s | ACTIVITY (time spent ambulating in an open field) [3, 17]: 170 ± 14 s | effect on ambulatory time ([3]; 0.1 and 1 mg/kg): did not alter ambulatory time | activity in the antidepressant models [4]: mimic clinically effective antidepressants in these models

O=C(O)c1cc(O)c2ccc(Cl)cc2n1 [7-chlorokynurenic acid]
effect on immobility in the forced swim test [1, 18]: did not reduce immobility in the forced swim test

NC1(C(=O)O)CCC1 [ACBC, 1-aminocyclobutanecarboxylic acid]
effect on immobility in the forced swim test [1, 18]: did not reduce immobility in the forced swim test | behavioral effects prior to forced swim [5]: marked behavioral effects, including ataxia

NC1(C(=O)O)CC1 [ACPC, 1-aminocyclopropanecarboxylic acid]
minimal effective dose [1]: 100 mg/kg | effect of glycine on the action of ACPC in the forced swim test ([1]; mouse, in vivo): completely abolished | effect on immobility in the forced swim test ([1]; mouse, in vivo): reduced immobility in the forced swim test in a dosedependent fashion | maximum reduction of immobility in the forced swim test ([1]; mouse, in vivo): 65% | further effect on immobility at higher doses ([1]; mouse, in vivo, 200 mg/kg): no further reductions in immobility | increase in ambulatory time in the open field [6]: 18% | increase in ambulatory time ([3]; 600 mg/kg, F(5,60)=10, p<0.0001): 29% | effect of glycine on the locomotor effects of ACPC in the open field ([3]; glycine 800 mg/kg i.p. 45 min prior to ACPC 400 mg/kg): partial antagonism | muscle relaxation or ataxia [7]: do not produce the muscle relaxation or ataxia | activity in the antidepressant models [4]: mimic clinically effective antidepressants in these models | effect on immobility in the tail suspension test [8]: reduction in immobility | Ki [9]: ~0.032 µM | activity at the strychnine-insensitive glycine binding site [9]: potent and selective partial agonist | efficacy in stimulating [3H]MK-801 binding [10]: significantly less efficacious than glycine | IC50 [11]: > 1000 µM | anticonflict actions in animal models [12]: possesses anticonflict actions in animal models

COC(=O)C1(N)CC1 [ACPCM, methyl 1-aminocyclopropanecarboxylate]
minimal effective dose ([1]; Table 2): 50 mg/kg | IMMOBILITY ([1]; Table 2, 25 mg/kg): 126 ± 8 s | IMMOBILITY % ([1]; Table 2, 25 mg/kg): -8% | IMMOBILITY ([1]; Table 2, 50 mg/kg): 89 ± 17 s | IMMOBILITY % ([1]; Table 2, 50 mg/kg): -35% | IMMOBILITY ([1]; Table 2, 100 mg/kg): 40 ± 18 s | IMMOBILITY % ([1]; Table 2, 100 mg/kg): -71% | IMMOBILITY ([1]; Table 2, 150 mg/kg): 69 ± 10 s | IMMOBILITY % ([1]; Table 2, 150 mg/kg): -50%

NC(CCCCCP(=O)(O)O)C(=O)O (stereo not drawn) [AP-7, 2-amino-7-phosphonoheptanoic acid]
ACTIVITY (time spent ambulating in an open field) ([13]; 40 mg/kg i.p.): 144 ± 5 s | ACTIVITY (time spent ambulating in an open field) ([13]; 80 mg/kg i.p.): 167 ± 16 s | ACTIVITY (time spent ambulating in an open field) ([13]; 100 mg/kg i.p.): 153 ± 5 s | ACTIVITY (time spent ambulating in an open field) ([13]; 200 mg/kg i.p.): 134 ± 10 s | IMMOBILITY ([1]; 40 mg/kg i.p., 30 min before test, mean ± SEM): 141 ± 21 s | IMMOBILITY ([1]; 80 mg/kg i.p., 30 min before test, mean ± SEM): 153 ± 9 s | IMMOBILITY % ([1]; 100 mg/kg i.p., 30 min before test): -35% | IMMOBILITY ([1]; 100 mg/kg i.p., 30 min before test, mean ± SEM): 93 ± 8 s | IMMOBILITY % ([1]; 200 mg/kg i.p., 30 min before test): -62% | IMMOBILITY ([1]; 200 mg/kg i.p., 30 min before test, mean ± SEM): 55 ± 13 s | effect on duration of immobility in the forced swim test ([1]; F(4,71) = 17, p<0.0001): significant, dose dependent reduction in the duration of immobility | activity at the NMDA receptor complex [2]: competitive antagonist | effect on ambulatory time in an open field ([3]; doses of Table 1): without affecting ambulatory time | activity in the antidepressant models [4]: mimic clinically effective antidepressants in these models

NC1CCN(O)C1=O (stereo not drawn) [HA-966, 3-amino-1-hydroxypyrrolidone]
effect on immobility in the forced swim test [1, 18]: did not reduce immobility in the forced swim test | lethality combined with forced swim [5]: lethal when combined with forced swim | behavioral effects prior to forced swim [5]: marked behavioral effects, including ataxia

O=C(O)c1cc2ccccc2[nH]1 [I2CA, indole2-carboxylic acid]
effect on immobility in the forced swim test [1, 18]: did not reduce immobility in the forced swim test | lethality combined with forced swim [5]: lethal when combined with forced swim | behavioral effects prior to forced swim [5]: marked behavioral effects, including ataxia

NC1(C(=O)O)CCCC1 [cycloleucine]
effect on immobility in the forced swim test [1, 18]: did not reduce immobility in the forced swim test

NCC(=O)O [glycine]
intrinsic activity in the open field ([13]; mouse, in vivo): devoid of intrinsic activity | intrinsic activity in the forced swim test ([1]; mouse, in vivo): devoid of intrinsic activity | concentrations of other amino acids (glutamate, serine, taurine, GABA, alanine) in the hippocampus [14]: unchanged
